Here are results for ten molecules from patent US20230165867A1 (CHENGDU BAIYU PHARMACEUTICAL CO., LTD., priority 2020, published 2023).

Series [1] in a line: Metabolic stability in liver microsomes. The class given is in vitro ADME, human. As to conditions: human, human liver microsomes; 0.5 µM test substance, 0.5 mg/mL microsomes, NADPH and UDPGA, 37° C.; read-out: T½(min), stability in human liver microsomes. The procedure: Liver microsomes (purchased from Reed Liver Disease Research (Shanghai) Co., Ltd., product: human liver microsomes (NJT)); NADPH (purchased from Roche, Lot: 40939); UDPGA; the compounds of the present invention (test substances).
• (1) A mixed working solution of testosterone (0.5 µM) and 7-hydroxycoumarin (0.5 µM) was prepared. • (2) A mixed solution of NADPH (1 mM) and UDPGA (1 mM) was prepared, and prewarmed at 37° C. in a water bath shaker before use. • (3) Liver microsomes were thawed and diluted with a buffer. • (4) A preparation of a test substance (0.5 µM) and a solution of liver microsomes (0.5 mg/mL) were added to each well of an incubation plate. • (5) Three experimental groups were set and samples were added. Test group: the test substance was incubated with liver microsomes for 0 min, 30 min, 60 min, and 120 min in the presence of the coenzyme NADPH and UDPGA; Positive control group: testosterone (0.5 µM) and 7-hydroxycoumarin (0.5 µM) were incubated with microsomes for 0 min and 120 min in the presence of the coenzyme NADPH and UDPGA; Negative control group: the test substance was incubated with microsomes for 0 and 120 min without any coenzyme. • (6) All samples were incubated at 37° C., and pre-cooled methanol was added at each termination time (0, 15, 30, 45, 60 min, 120 min) to terminate the reaction, and the time was recorded. • (7) All samples were mixed well and centrifuged at 4000 rpm for 10 min. The supernatant was taken and measured by LC-MS/MS for the amount of the test substance remaining in the samples. Data analysis was carried out as follows: T½=0.693 /k, Clint = (0.693/T½) × (1 /(microsomal protein) × Scaling Factors), Note: k is the slope of the logarithm of the remaining amounts of compound versus time.
In general terms: Liver microsomes are vesicles of endoplasmic reticulum, rich in cytochrome P450 enzymes.

Series [2] in a line: Pharmacokinetic assay in ICR mice (i.v. and p.o.). As to conditions: mouse, plasma, male ICR mice; for half-life: read-out: T½ (converted); for bioavailability: po 10 mg/kg vs iv 1 mg/kg. It is filed as in vivo. An outline of the steps:
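Fasted male ICR mice (18-22 g) dosed at 1 mg/kg i.v. or 10 mg/kg p.o. in 5% DMSO/95% 30% HP-β-CD, three mice per time point. Submandibular plasma sampled up to 24 h, assayed by LC/MS/MS.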

The target of another series is T1, TTK kinase (Homo sapiens, UniProt P33981).
T1 construct: purchased Invitrogen PV3792
T1 sequence (P33981 1-857): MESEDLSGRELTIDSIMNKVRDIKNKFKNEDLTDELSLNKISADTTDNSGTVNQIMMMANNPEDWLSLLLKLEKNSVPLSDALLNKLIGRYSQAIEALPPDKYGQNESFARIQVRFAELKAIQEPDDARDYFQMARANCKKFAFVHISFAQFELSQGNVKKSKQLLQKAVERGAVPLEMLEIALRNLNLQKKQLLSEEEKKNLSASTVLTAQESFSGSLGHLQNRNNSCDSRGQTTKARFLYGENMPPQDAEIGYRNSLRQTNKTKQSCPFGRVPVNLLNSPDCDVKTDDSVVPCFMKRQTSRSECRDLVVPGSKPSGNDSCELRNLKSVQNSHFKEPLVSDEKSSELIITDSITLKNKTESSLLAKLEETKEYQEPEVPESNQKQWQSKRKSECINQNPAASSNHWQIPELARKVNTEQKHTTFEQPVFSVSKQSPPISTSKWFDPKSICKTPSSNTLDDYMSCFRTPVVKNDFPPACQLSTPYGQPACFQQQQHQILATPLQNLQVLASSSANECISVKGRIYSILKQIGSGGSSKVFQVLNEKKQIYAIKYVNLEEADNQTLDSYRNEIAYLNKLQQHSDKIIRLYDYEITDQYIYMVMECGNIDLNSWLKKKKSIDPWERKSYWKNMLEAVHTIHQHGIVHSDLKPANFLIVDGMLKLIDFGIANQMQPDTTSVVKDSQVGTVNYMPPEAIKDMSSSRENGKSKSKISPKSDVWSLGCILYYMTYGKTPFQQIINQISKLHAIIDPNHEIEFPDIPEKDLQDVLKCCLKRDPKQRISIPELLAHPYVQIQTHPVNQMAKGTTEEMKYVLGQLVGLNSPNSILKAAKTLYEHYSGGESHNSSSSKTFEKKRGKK
The series is described as follows: TTK kinase activity assay (ADP-Glo). It is filed as biochemical. As to conditions: initial concentration 1000 nM, 1:3, 10 dilutions; read-out: IC50 (nM), TTK kinase inhibiting activity. The procedure:
TTK kinase was purchased from Invitrogen, Cat.#: PV3792.
• (1) 1×buffer was prepared by diluting 5×buffer into 1×buffer with ddH2O, and adding 0.05 mM DTT. • (2) The compounds of the present invention were prepared at an initial concentration of 1000 nM, and diluted by 1:3 to obtain 10 serial dilutions. • (3) The diluted compounds of the present invention were added to a 384-well plate (purchased from Greiner, product number 784075) by an Echo 550 pipetting workstation, and centrifuged at 1000 g for 1 min. • (3) A 2×TTK enzyme solution was prepared with the 1×buffer. Then, 2.5 µL of the 2× enzyme solution was added to each well, centrifuged at 1000 g for 30 s, and left at room temperature for 10 min. • (4) A 2×MBP substrate/ATP mixture was prepared with the 1×buffer.
In general terms: ADP-Glo turns the ADP formed in a reaction into a luminescent signal.

The next series has as its target T2, DNA-PK kinase (Homo sapiens, UniProt P78527).
T2 construct: purchased Promega V4107
The series is described as follows: Inhibition assay of DNA-PK kinase (Promega kit, ADP-Glo chemiluminescence). It is filed as biochemical. As to conditions: 50 µM ATP, 37° C., 60 min; read-out: IC50 (nM), inhibitory activity on DNA-PK kinase. The gist of the method:
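Compounds incubated with DNA-PK at 37° C for 60 min; reaction stopped with ADP-Glo reagent (40 min, RT), then kinase detection reagent (30 min, RT). ADP formed read by luminescence against an ADP standard curve.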

Where two headings read alike, the source gives them in different places.

In general, AUC refers to the area under the concentration-time curve, a measure of exposure. One may read the Cmax as the maximum level reached in the sampled fluid or tissue. The IC50 is the concentration that gives 50% inhibition. Regarding `Cc1cc(C(N)=O)ccc1Nc1ncc2c(n1)n(C1CCOCC1)c(=O)n2C` [Compound 2, 3-Methyl-4-((7-methyl-8-oxo-9-(tetrahydro-2H-pyran-4-yl)-8,9-dihydro-7H-purin-2-yl)amino)benzamide], the half-life at 0.5 µM in series [1] was > 120 min. In series [2] (iv, 1 mg/kg), the AUC stood at 265 ng·h/mL and the half-life is 0.87 h. Besides, the bioavailability in series [2] was determined as 38.2%. Also, in series [2] (po, 10 mg/kg), the AUC was 1040 ng·h/mL, the Cmax was found to be 449 ng/mL and the half-life was 1.84 h. In addition, the IC50 at TTK kinase stood at 275 nM.
For the molecule `Cc1cc(C#N)ccc1Nc1ncc2c(n1)n(C1CCOCC1)c(=O)n2C` [Compound 5, 3-Methyl-4-((7-methyl-8-oxo-9-(tetrahydro-2H-pyran-4-yl)-8,9-dihydro-7H-purin-2-yl)amino)benzonitrile], the half-life at 0.5 µM in series [1] was > 120 min. Also, in series [2] (iv, 1 mg/kg), the AUC worked out at 234 ng·h/mL and the half-life was 0.333 h. The bioavailability in series [2] came to 99.4%. For the same molecule, in series [2] (po, 10 mg/kg), the AUC was found to be 2270 ng·h/mL, the highest level (Cmax) was 835 ng/mL and the half-life is 3.21 h. Moreover, on TTK kinase, the IC50 amounted to 1720 nM.
As for `Cc1cc(C(N)=O)ncc1Nc1ncc2c(n1)n(C1CCOCC1)c(=O)n2C` [Compound 18, 4-Methyl-5-((7-methyl-8-oxo-9-(tetrahydro-2H-pyran-4-yl)-8,9-dihydro-7H-purin-2-yl)amino)picolinamide], at DNA-PK kinase, the IC50 stood at 2.1 nM. Moreover, the half-life at 0.5 µM in series [1] is > 120 min. Besides, in series [2] (iv, 1 mg/kg), the AUC is 171 ng·h/mL and the half-life was 0.771 h. In series [2], the bioavailability was 78.4%. For the same molecule, in series [2] (po, 10 mg/kg), the AUC is 1360 ng·h/mL, the highest level (Cmax) was 312 ng/mL and the half-life is 3.06 h. Also, the IC50 on TTK kinase is 387 nM.
As to `Cc1cc(C(N)=O)c(F)cc1Nc1ncc2c(n1)n(C1CCOCC1)c(=O)n2C` [Compound 24, 2-Fluoro-5-methyl-4-((7-methyl-8-oxo-9-(tetrahydro-2H-pyran-4-yl)-8,9-dihydro-7H-purin-2-yl)amino)benzamide], on DNA-PK kinase, the IC50 is 0.56 nM. In addition, the half-life at 0.5 µM in series [1] was > 120 min. Besides, in series [2] (iv, 1 mg/kg), the AUC is 466 ng·h/mL and the half-life was 0.95 h. Also, in series [2], the bioavailability came out at 135%. Besides, in series [2] (po, 10 mg/kg), the AUC came out at 6280 ng·h/mL, the Cmax was determined as 2500 ng/mL and the half-life was 3.73 h. The IC50 on TTK kinase was 4220 nM.
Turning to `CNC(=O)c1cc(C)c(Nc2ncc3c(n2)n(C2CCOCC2)c(=O)n3C)cn1` [Compound 54, N,4-Dimethyl-5-((7-methyl-8-oxo-9-(tetrahydro-2H-pyran-4-yl)-8,9-dihydro-7H-purin-2-yl)amino)picolinamide], the IC50 on DNA-PK kinase was determined as 8.07 nM. In series [1], the half-life at 0.5 µM was > 120 min. In series [2] (iv, 1 mg/kg), the AUC is 840 ng·h/mL and the half-life is 5.22 h. Besides, the bioavailability in series [2] is 63.9%. Moreover, in series [2] (po, 10 mg/kg), the AUC is 5370 ng·h/mL, the Cmax stood at 2060 ng/mL and the half-life is 3.21 h.
For `Cc1cc(C(N)=O)c(F)cc1Nc1ncc2c(n1)n([C@H]1CCOC1)c(=O)n2C` [Compound 75, (S)-2-fluoro-5-methyl-4-((7-methyl-8-oxo-9-(tetrahydrofuran-3-yl)-8,9-dihydro-7H-purin-2-yl)amino)benzamiderile], on DNA-PK kinase, the IC50 was determined as 5.69 nM. Besides, the half-life at 0.5 µM in series [1] is > 120 min. Moreover, in series [2] (iv, 1 mg/kg), the AUC came out at 109 ng·h/mL and the half-life is 0.31 h. For the same molecule, the bioavailability in series [2] turned out to be 69.2%. Besides, in series [2] (po, 10 mg/kg), the AUC amounted to 756 ng·h/mL, the highest level (Cmax) was 984 ng/mL and the half-life is 2.1 h.
With `Cc1cc(C(N)=O)c(F)cc1Nc1ncc2c(n1)n([C@@H]1CCOC1)c(=O)n2C` [Compound 76, (R)-2-fluoro-5-methyl-4-((7-methyl-8-oxo-9-(tetrahydrofuran-3-yl)-8,9-dihydro-7H-purin-2-yl)amino)benzamiderile], the IC50 at DNA-PK kinase came out at 1.96 nM. Moreover, the half-life at 0.5 µM in series [1] was > 120 min. Also, in series [2] (iv, 1 mg/kg), the AUC came to 120 ng·h/mL and the half-life was 0.3 h. In series [2], the bioavailability was 104%. In series [2] (po, 10 mg/kg), the AUC was 1360 ng·h/mL, the concentration peaked (Cmax) at 1570 ng/mL and the half-life was 0.93 h.
In the case of `Cc1cc(C(N)=O)c(F)cc1Nc1ncc2c(n1)n([C@H]1CC[C@@H](C#N)CC1)c(=O)n2C` [Compound 77, 4-((9-(cis-4-cyanocyclohexyl)-7-methyl-8-oxo-8,9-dihydro-7H-purin-2-yl)amino)-2-fluoro-5-methylbenzamide], the IC50 on DNA-PK kinase was found to be 4.67 nM. For the same molecule, the half-life at 0.5 µM in series [1] is > 120 min. Besides, in series [2] (iv, 1 mg/kg), the AUC turned out to be 545 ng·h/mL and the half-life is 1.55 h. Also, the bioavailability in series [2] was 108%. Besides, in series [2] (po, 10 mg/kg), the AUC was 5970 ng·h/mL, the concentration peaked (Cmax) at 1750 ng/mL and the half-life was 3.24 h.
Consider `Cc1cc(C(N)=O)c(F)cc1Nc1ncc2c(n1)n([C@H]1CC[C@H](C#N)CC1)c(=O)n2C` [Compound 79, 4-((9-(trans-4-cyanocyclohexyl)-7-methyl-8-oxo-8,9-dihydro-7H-purin-2-yl)amino)-2-fluoro-5-methylbenzamide], for which, at DNA-PK kinase, the IC50 was 1.86 nM. Also, in series [1], the half-life at 0.5 µM is > 120 min. In addition, in series [2] (iv, 1 mg/kg), the AUC is 482 ng·h/mL and the half-life is 0.63 h. Besides, the bioavailability in series [2] came out at 100%. Also, in series [2] (po, 10 mg/kg), the AUC was determined as 4440 ng·h/mL, the Cmax amounted to 2490 ng/mL and the half-life is 2.15 h.
In the case of `Cc1cc(C#N)ccc1Nc1ncc2c(n1)n([C@H]1CC[C@H](C#N)CC1)c(=O)n2C` [Compound 80, 4-((9-(trans-4-cyanocyclohexyl)-7-methyl-8-oxo-8,9-dihydro-7H-purin-2-yl)amino)-3-methylbenzonitrile], the IC50 on DNA-PK kinase worked out at 11.1 nM. Besides, the half-life at 0.5 µM in series [1] is > 120 min. Also, in series [2] (iv, 1 mg/kg), the AUC is 6300 ng·h/mL and the half-life is 3.12 h. In addition, the bioavailability in series [2] is 33.6%. In series [2] (po, 10 mg/kg), the AUC was found to be 21200 ng·h/mL, the peak level (Cmax) was 3570 ng/mL and the half-life was 2.16 h.
